Source: PubChem BioAssay AID602264 (The Scripps Research Institute Molecular Screening Center, 2012)
Active and inactive are the calls of the source. No rule for the calls is given here.

Biological target: Mu-type opioid receptor (Homo sapiens) + Delta-type opioid receptor (Homo sapiens) (UniProt P35372+P41143)
Assay: OPRM1-OPRD1 heterodimer agonist potency – cell-based, luminescence, counter-screen for MC4R biased agonist project, dose response (AID 602264)
Details: cell-based OPRM1-OPRD1 heterodimerization

Mu-type opioid receptor (Homo sapiens) + Delta-type opioid receptor (Homo sapiens), sequence (P35372 whole entry, looked up): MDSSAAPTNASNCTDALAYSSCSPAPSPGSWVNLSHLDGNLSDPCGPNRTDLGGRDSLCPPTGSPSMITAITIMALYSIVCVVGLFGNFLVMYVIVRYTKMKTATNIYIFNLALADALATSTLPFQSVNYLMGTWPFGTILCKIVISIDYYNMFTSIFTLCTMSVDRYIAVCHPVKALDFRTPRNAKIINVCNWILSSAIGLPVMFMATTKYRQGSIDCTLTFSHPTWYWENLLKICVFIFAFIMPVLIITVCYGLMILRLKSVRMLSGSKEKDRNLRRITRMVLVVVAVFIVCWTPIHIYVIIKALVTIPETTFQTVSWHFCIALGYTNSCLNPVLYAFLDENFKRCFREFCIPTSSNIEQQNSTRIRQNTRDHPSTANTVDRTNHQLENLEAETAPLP
Mu-type opioid receptor (Homo sapiens) + Delta-type opioid receptor (Homo sapiens), sequence (P41143 whole entry, looked up): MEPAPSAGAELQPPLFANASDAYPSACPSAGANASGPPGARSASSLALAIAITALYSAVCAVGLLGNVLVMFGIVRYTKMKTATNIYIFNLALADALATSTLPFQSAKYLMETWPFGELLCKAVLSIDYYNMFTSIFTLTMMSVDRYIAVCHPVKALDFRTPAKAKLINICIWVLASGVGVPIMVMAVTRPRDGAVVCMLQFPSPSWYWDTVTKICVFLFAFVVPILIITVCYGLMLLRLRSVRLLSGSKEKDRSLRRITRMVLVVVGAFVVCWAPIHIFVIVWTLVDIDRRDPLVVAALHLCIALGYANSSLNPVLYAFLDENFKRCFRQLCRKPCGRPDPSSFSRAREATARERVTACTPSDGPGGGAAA

SMILES: COc1ccc(-c2sc3ccc(N4CCOCC4)cc3c2C#CC2(O)CCCCC2)cc1
- EC50: > 64.6 µM (inactive)

SMILES: CCCCCCCCCCOC(=O)Cn1c(COc2cccc(C)c2)[n+](C)c2ccccc21
- EC50: > 64.6 µM (inactive)

SMILES: CCN1C(=O)/C(=C2/Sc3ccc(OC)cc3N2C)SC1=Nc1cccc(O)c1
- EC50: > 92.5 µM (inactive)

SMILES: CCOC(=O)c1ccc(-c2ccc(/C=C(\C#N)C(=O)NCc3cccs3)o2)cc1
- EC50: > 64.6 µM (inactive)

SMILES: COc1ccc(-c2cnc3c(NC(C)=O)cc(-c4cc(F)ccc4OC)cn23)cc1OC
- EC50: > 64.6 µM (inactive)

SMILES: Clc1ccc(/C=N/NC2=Nc3cccc4cccc2c34)cc1
- EC50: > 92.4 µM (inactive)

SMILES: CC(=O)Nc1cc(-c2ccc(CO)cc2)cn2c(-c3cccc(C(F)(F)F)c3)cnc12
- EC50: > 64.6 µM (inactive)

SMILES: CC(=O)Nc1cc(-c2ccc(F)cc2)cn2c(-c3ccc(F)c(Cl)c3)cnc12
- EC50: > 64.6 µM (inactive)

SMILES: CC1=NNC(=O)/C1=C\c1cn(-c2ccccc2)nc1-c1ccc(Cl)cc1
- EC50: > 92.5 µM (inactive)

SMILES: COc1ccc2c(c1)CCc1c(C(=O)Nc3ccn(Cc4ccc(C)cc4)n3)noc1-2
- EC50: > 92.4 µM (inactive)

SMILES: CCOCCCN(Cc1ccco1)C(=O)c1cc2c(=O)[nH]c3ccc(C)cc3c2s1
- EC50: > 64.6 µM (inactive)

SMILES: CC(=O)Nc1cc(-c2ccccc2N(C)C)cn2c(-c3ccc(F)c(Cl)c3)cnc12
- EC50: > 64.6 µM (inactive)

SMILES: CCN1CCN(CCNC(=O)c2ccc(/C=C3\Sc4ccccc4N(Cc4ccccc4F)C3=O)cc2)CC1
- EC50: > 92.5 µM (inactive)

SMILES: CC(=O)c1cccc(-c2cnc3c(NC=O)cc(-c4ccccc4F)cn23)c1
- EC50: > 64.6 µM (inactive)

SMILES: Cc1cc(NC(=O)c2cncc(Br)c2)ccc1NC(=O)c1cc2ccccc2o1
- EC50: > 64.6 µM (inactive)

SMILES: NC(Cc1ccc(C(F)(F)F)cc1)c1csc(Nc2nccc(C(F)(F)F)n2)n1 (stereo not given)
- EC50: > 92.4 µM (inactive)

SMILES: CCCCCCCCCCCCCCCC[n+]1ccc(/C=N/O)cc1
- EC50: > 64.6 µM (inactive)

SMILES: COc1ccc(-c2cc(NC(C)=O)c3ncc(-c4cccc(C(F)(F)F)c4)n3c2)c(OC)c1
- EC50: > 92.5 µM (inactive)

SMILES: NC(Cc1ccc(Cl)cc1)c1csc(Nc2ccc(-c3ccccc3)nn2)n1 (stereo not given)
- EC50: > 92.4 µM (inactive)

SMILES: Cc1ccc(Sc2ccc(NC(=O)CCl)cc2)cc1C
- EC50: inactive

SMILES: Cc1ccc(C2=NN(C(=O)c3cccs3)C(c3ccccc3O)C2)cc1 (stereo not given)
- EC50: > 64.6 µM (inactive)

SMILES: COc1ccc(-c2cnc3c(NC(C)=O)cc(-c4ccccc4OC)cn23)cc1OC
- EC50: > 64.6 µM (inactive)

SMILES: COc1cc(/C=C2\Oc3ccc(C#Cc4ccc(O)cc4)cc3C2=O)cc(OC)c1
- EC50: > 92.5 µM (inactive)

SMILES: CC(C)c1ccc(NC(=O)CSc2ncccc2C(=O)Oc2cccc([N+](=O)[O-])c2)cc1
- EC50: > 92.5 µM (inactive)

SMILES: Cc1c(CN2CCC(CO)(CCOc3ccccc3)CC2)[nH]c2c(Cl)cccc12
- EC50: > 92.5 µM (inactive)

SMILES: C/C(=C\c1ccco1)C1C(C#N)=C(N)Oc2n[nH]c(-c3ccc(C)cc3)c21 (stereo not given)
- EC50: > 64.6 µM (inactive)

SMILES: CC(=O)Nc1cc(-c2cccc(F)c2)cn2c(-c3ccc(F)cc3)cnc12
- EC50: > 92.5 µM (inactive)

SMILES: Cc1ccc(-c2nnc(-c3ccc(NC(=O)Cc4cccs4)cc3)o2)cc1
- EC50: > 64.6 µM (inactive)

SMILES: COc1ccc(-c2cc(NC(C)=O)c3ncc(-c4ccc(OC)c(OC)c4)n3c2)cc1OC
- EC50: > 64.6 µM (inactive)

SMILES: COc1cc(NC(=O)Nc2nc(C(N)Cc3ccc(C(F)(F)F)cc3)cs2)cc(OC)c1OC (stereo not given)
- EC50: > 10.3 µM (inactive)

SMILES: COc1cc2nc(Nc3ccc(C)c(Cl)c3)nc(N)c2cc1OC
- EC50: > 92.5 µM (inactive)

SMILES: Cc1cccc(C)c1-n1cccc1/C=C1\SC(=S)N(c2cccc(C(=O)O)c2)C1=O
- EC50: > 92.5 µM (inactive)

SMILES: COc1cccc(-c2cnc3c(NC=O)cc(-c4ccc(O)c(OC)c4)cn23)c1
- EC50: > 64.6 µM (inactive)

SMILES: CN(C)CCCN(C(=O)CCc1ccccc1)c1nc2ccc(Cl)cc2s1
- EC50: > 92.4 µM (inactive)

SMILES: CN(C)CCOc1ccc(-c2c(-c3ccsc3)sc3ccccc23)cc1
- EC50: > 92.5 µM (inactive)

SMILES: CCOc1ccc(NC(=O)CSc2nc(-c3cccs3)cc(C(F)(F)F)n2)c([N+](=O)[O-])c1
- EC50: > 64.6 µM (inactive)

SMILES: CC(=O)Nc1cc(-c2ccc(N(C)C)cc2)cn2c(-c3ccc(F)cc3)cnc12
- EC50: > 64.6 µM (inactive)

SMILES: COc1cccc(-c2cnc3c(NC(C)=O)cc(-c4cc(F)ccc4OC)cn23)c1
- EC50: > 92.5 µM (inactive)

SMILES: CC(=O)Nc1cc(-c2cccc(NS(C)(=O)=O)c2)cn2c(-c3ccccc3)cnc12
- EC50: > 92.5 µM (inactive)

SMILES: CC(=O)Nc1cc(-c2ccccc2)cn2c(-c3cccc(C(C)=O)c3)cnc12
- EC50: > 64.6 µM (inactive)

SMILES: C/C(=N\NC(=O)COc1cccc2ccccc12)c1cccs1
- EC50: > 64.6 µM (inactive)

SMILES: Cc1cc(C)c2sc(N(CCCN(C)C)C(=O)c3ccc(Br)s3)nc2c1
- EC50: > 92.5 µM (inactive)

SMILES: CC(=O)Nc1cc(-c2ccc(C(=O)NC3CC3)cc2)cn2c(-c3cccc(C(C)=O)c3)cnc12
- EC50: > 64.6 µM (inactive)

SMILES: Cc1cccnc1C(c1ccc(F)cc1)N(C)C(=O)C1CCN(CCOc2ccc(Cl)cc2Cl)CC1 (stereo not given)
- EC50: > 92.5 µM (inactive)

SMILES: CCN1CCN(Cc2ccc(NC(=O)c3cc(NC(=O)C(=O)c4c[nH]c5ccccc45)cc(OC)c3)cc2C(F)(F)F)CC1
- EC50: > 92.5 µM (inactive)
